According to patent US9907847B2, “Pyrrolopyrimidines as therapeutic agents for the treatment of diseases” (GlaxoSmithKline LLC, priority 2012, dated 2018):

Tests used:
TNF-α = experiment: Induction of TNF-α using fresh human whole blood (WB); type: cell-based; details: three donors, overnight incubation, response as % of 2 μM resiquimod control, read-out: mean pEC50 for TNF-α (converted)
Method: (§1) Assay for the Induction of Interferon-[…] and TNF-[…] Using Fresh Human Whole Blood (WB)
(§2) Compounds were prepared at 100× required concentration in DMSO in flat-bottom microtitre plates at a volume of 1.5 μL. Columns 1-10 contained a 1 in 4 serial dilution of the test compound. Included on each plate was a serial dilution of the TLR7/8 agonist resiquimod as a standard and Column 11 contained 1.5 μl of 200 μM resiquimod (giving a 2 μM final concentration, used to define the approximate maximal response to resiquimod). Each compound was assayed in duplicate for each donor.
(§3) Blood samples from three human donors were collected into sodium heparin (10 U/ml). 150 μl of whole Blood was dispensed into Col 1 to 11 of assay plates containing 1.5 μl of test compound or standard in DMSO. Plates were placed in an incubator overnight (37° C., 95% air, 5% CO2). Following the overnight incubation, plates were removed from the incubator & mixed on an orbital shaker for approximately 1 minute. 100 μl of 0.9% saline was added to each well and the plates mixed again on an orbital shaker. Plates were then centrifuged (2500 rpm, 10 mins), after which a sample of plasma was removed using a Biomek FX and assayed for both IFN-α and TNF-α using the MSD (Mesoscale Discovery) electrochemiluminescence assay platform. The IFN-α assay was carried out similarly to that described above. The TNF-α assay was carried out as per kit instructions (Cat No K111BHB).
(§4) Cytokine released was expressed as a percentage of the 2 μM resiquimod control (column 11). This percentage was plotted against compound concentration and the pEC50 for the response determined by non-linear least squares curve fitting. For the IFN-α responses, generally a 4 parameter logistic model was selected. For the TNF-α responses where a clear maximum response was obtained (i.e. a well defined plateau in the response was observed) then a 4 parameter model was generally used. If the upper asymptote of the curve wasn't well defined then the curve fitting was generally constrained to a maximal response of 100% (i.e. to the response to 2 μM resiquimod) or to the response of the highest concentration tested if this was greater than the resiquimod response. Some curves were bell shaped for one or both cytokines and the cytokine data on the down slope of the bell shaped response (i.e. concentrations above those giving the maximal response) were generally excluded from the fit, usually with the exception of the concentration immediately above the peak response. Curve fitting thus concentrated on the up slope of the dose response curve.

IFN-α = experiment: Induction of interferon-α using fresh human whole blood (WB); type: cell-based; details: three donors, overnight incubation, response as % of 2 μM resiquimod control, read-out: mean pEC50 for IFN-α (converted)
Method: as §1, §2, §3, §4

EC50 (TNF-α) [µM]	EC50 (IFN-α) [µM]	SMILES
≥ 5.01	≤ 5.01	CCCCc1nc(N)c2[nH]cc(CCCCCN3CCC[C@@H]3C)c2n1 [Example 34, (S)-2-Butyl-7-(5-(2-methylpyrrolidin-1-yl)pentyl)-5H-pyrrolo[3,2-d]pyrimidin-4-amine]
≥ 5.01	≤ 5.01	CCCCc1nc(N)c2[nH]cc(CCCCCN3CCC[C@H]3C)c2n1 [Example 35, (R)-2-Butyl-7-(5-(2-methylpyrrolidin-1-yl)pentyl)-5H-pyrrolo[3,2-d]pyrimidin-4-amine]
≥ 5.01	≤ 5.01	CCCCc1nc(N)c2[nH]cc(CCCCCN3CC(C)C3)c2n1 [Example 36, 2-Butyl-7-(5-(3-methylazetidin-1-yl)pentyl)-5H-pyrrolo[3,2-d]pyrimidin-4-amine]
≥ 5.01	≤ 5.01	CCCCc1nc(N)c2[nH]cc(CCCCCN3CC(F)C3)c2n1 [Example 37, 2-Butyl-7-(5-(3-fluoroazetidin-1-yl)pentyl)-5H-pyrrolo[3,2-d]pyrimidin-4-amine]
≥ 5.01	≤ 5.01	CCCCc1nc(N)c2[nH]c(C)c(CCCCCN3CCC(F)CC3)c2n1 [Example 39, 2-Butyl-7-(5-(4-fluoropiperidin-1-yl)pentyl)-6-methyl-5H-pyrrolo[3,2-d]pyrimidin-4-amine]
≥ 5.01	≤ 5.01	CCCCc1nc(N)c2[nH]c(C)c(CCCCCN3CC[C@H](F)C3)c2n1 [Example 40, (S)-2-Butyl-7-(5-(3-fluoropyrrolidin-1-yl)pentyl)-6-methyl-5H-pyrrolo[3,2-d]pyrimidin-4-amine]
≥ 5.01	≤ 5.01	CCCCc1nc(N)c2[nH]c(C)c(CCCCCN3CC[C@@H](F)C3)c2n1 [Example 41, (R)-2-Butyl-7-(5-(3-fluoropyrrolidin-1-yl)pentyl)-6-methyl-5H-pyrrolo[3,2-d]pyrimidin-4-amine]
≥ 5.01	≤ 5.01	CCCCc1nc(N)c2[nH]c(C)c(CCCCCN3CC(F)C3)c2n1 [Example 42, 2-Butyl-7-(5-(3-fluoroazetidin-1-yl)pentyl)-6-methyl-5H-pyrrolo[3,2-d]pyrimidin-4-amine]
≥ 5.01	≤ 5.01	COCCc1nc(N)c2[nH]cc(CCCCCN3CCCC3)c2n1 [Example 43, 2-(2-Methoxyethyl)-7-(5-(pyrrolidin-1-yl)pentyl)-5H-pyrrolo[3,2-d]pyrimidin-4-amine]
